Experimental data taken from the OligoGym collection.
Several values for one entry are separate records, joined by “and”; a condition that tells them apart may be missing. Equal values may be shown once. After the bases stand the sugars from the 5' end (letter, count) and the backbone: PS all phosphorothioate, else s phosphorothioate and o phosphodiester by linkage. Methylation of C is not given here. e = 2'-O-(2-methoxyethyl) (MOE); k = constrained ethyl (cEt); d = 2'-deoxy (DNA)

Target: SOD1
Conditions: ASO

GGCGATCCCAATTACACCAC (sugars e6 d8 e6, linkages s1 o3 s10 o3 s2)
target mRNA inhibition (A431, 0.062 µM): 7% | target mRNA inhibition (A431, 0.185 µM): 0% | target mRNA inhibition (A431, 0.556 µM): 0% | target mRNA inhibition (A431, 1.667 µM): 23% | target mRNA inhibition (A431, 5 µM): 14% | target mRNA inhibition (A431, 15 µM): 6% | target mRNA inhibition (SH-SY5Y, 0.062 µM): 0% | target mRNA inhibition (SH-SY5Y, 0.185 µM): 0% | target mRNA inhibition (SH-SY5Y, 0.556 µM): 8% | target mRNA inhibition (SH-SY5Y, 1.667 µM): 23% | target mRNA inhibition (SH-SY5Y, 5 µM): 49% | target mRNA inhibition (SH-SY5Y, 15 µM): 66%

TACATTTCTACAGCTA (sugars kekeddddddddekek, linkages s1 o3 s8 o1 s2)
target mRNA inhibition (A431, 0.12 µM): 0% | target mRNA inhibition (A431, 0.6 µM): 13% | target mRNA inhibition (A431, 3 µM): 36% | target mRNA inhibition (A431, 15 µM): 59%

CCTTTGGCCCACCGTGT (sugars e3 k2 d7 k2 e3, PS)
target mRNA inhibition (HepG2, 3 µM): 46%

TAATAAGTGCCATACAG (sugars e2 k2 d8 k2 e3, PS)
target mRNA inhibition (HepG2, 5 µM): 22%

GCACTGGTACAGCCTGCTGT (sugars e5 d10 e5, PS)
target mRNA inhibition (HepG2, 5 µM): 31% and 24%

CGCCCTTCAGCACGCAC (sugars e2 k2 d9 k2 e2, PS)
target mRNA inhibition (HepG2, 0.1875 µM): 12% | target mRNA inhibition (HepG2, 0.75 µM): 47% | target mRNA inhibition (HepG2, 3 µM): 79% | target mRNA inhibition (HepG2, 4 µM): 73% | target mRNA inhibition (HepG2, 12 µM): 94%

CATACAGGGTTTTTATT (sugars e3 k2 d7 k2 e3, PS)
target mRNA inhibition (HepG2, 3 µM): 0%

TGTGATTTAAGTCTGGC (sugars e2 k2 d9 k2 e2, PS)
target mRNA inhibition (HepG2, 5 µM): 58%

AATGCTTCCCCACACCT (sugars e3 k2 d7 k2 e3, PS)
target mRNA inhibition (HepG2, 3 µM): 35%

CTTTGCCCAAGTCATCTGCT (sugars e5 d10 e5, PS)
target mRNA inhibition (HepG2, 4 µM): 56% | target mRNA inhibition (HepG2, 12 µM): 86%

TGGCAAAATACAGGTCA (sugars e3 k2 d7 k2 e3, PS)
target mRNA inhibition (HepG2, 3 µM): 26%

GCTTTTTCATGGACCAC (sugars e3 k2 d7 k2 e3, PS)
target mRNA inhibition (HepG2, 3 µM): 71%

AAGTGATCATAAATCAGTTT (sugars e5 d10 e5, PS)
target mRNA inhibition (HepG2, 4 µM): 86% | target mRNA inhibition (HepG2, 5 µM): 8% | target mRNA inhibition (HepG2, 12 µM): 96%

CTTCTGCTCGAAATTGATGA (sugars e5 d10 e5, PS)
target mRNA inhibition (HepG2, 4 µM): 11%

AAACTATACAAATCTTC (sugars e2 k2 d9 k2 e2, PS)
target mRNA inhibition (HepG2, 5 µM): 55%

GATCCCAATTACACCAC (sugars e2 k2 d8 k2 e3, PS)
target mRNA inhibition (HepG2, 4 µM): 41%

TCACACAATTACACTTTTAA (sugars e5 d10 e5, PS)
target mRNA inhibition (HepG2, 5 µM): 15%

TTCTTTTAATAGCCTCATAA (sugars e5 d10 e5, PS)
target mRNA inhibition (HepG2, 5 µM): 5%

GGCGATCCCAATTACACC (sugars e5 d8 e5, linkages s1 o3 s9 o2 s2)
target mRNA inhibition (A431, 0.062 µM): 3% | target mRNA inhibition (A431, 0.185 µM): 1% | target mRNA inhibition (A431, 0.556 µM): 29% | target mRNA inhibition (A431, 1.667 µM): 0% | target mRNA inhibition (A431, 5 µM): 27% | target mRNA inhibition (A431, 15 µM): 0% | target mRNA inhibition (SH-SY5Y, 0.062 µM): 0% | target mRNA inhibition (SH-SY5Y, 0.185 µM): 3% | target mRNA inhibition (SH-SY5Y, 0.556 µM): 21% | target mRNA inhibition (SH-SY5Y, 1.667 µM): 31% | target mRNA inhibition (SH-SY5Y, 5 µM): 47% | target mRNA inhibition (SH-SY5Y, 15 µM): 66%

TCAGACTACATCCAAGG (sugars e2 k2 d9 k2 e2, PS)
target mRNA inhibition (HepG2, 0.1875 µM): 0% | target mRNA inhibition (HepG2, 0.75 µM): 47% | target mRNA inhibition (HepG2, 3 µM): 75% | target mRNA inhibition (HepG2, 4 µM): 78% | target mRNA inhibition (HepG2, 12 µM): 90%

CTGGTCCATTACTTTCC (sugars e3 k2 d7 k2 e3, PS)
target mRNA inhibition (HepG2, 3 µM): 11%

CCTCATAATAAGTGCCA (sugars e2 k2 d9 k2 e2, PS)
target mRNA inhibition (HepG2, 5 µM): 31%

TTCTACAGCTAGCAGGA (sugars e3 k2 d7 k2 e3, PS)
target mRNA inhibition (HepG2, 3 µM): 31%

CAGGTCATTGAAACAGA (sugars e3 k2 d7 k2 e3, PS)
target mRNA inhibition (HepG2, 3 µM): 14%

AATAGCCTCATAATAAG (sugars e2 k2 d9 k2 e2, PS)
target mRNA inhibition (HepG2, 5 µM): 25%

GTTTATCAGGATACATT (sugars e2 k2 d9 k2 e2, PS)
target mRNA inhibition (HepG2, 0.1875 µM): 38% | target mRNA inhibition (HepG2, 0.75 µM): 74% | target mRNA inhibition (HepG2, 3 µM): 89% | target mRNA inhibition (HepG2, 4 µM): 88% | target mRNA inhibition (HepG2, 12 µM): 95%

CTCCAACATGCCTCTCT (sugars e3 k2 d7 k2 e3, PS)
target mRNA inhibition (HepG2, 3 µM): 5%

CGCCCTTCAGCACGCAC (sugars e2 k2 d8 k2 e3, PS)
target mRNA inhibition (HepG2, 4 µM): 67%

GTACTTTAAAGCAACTCTGA (sugars e5 d10 e5, PS)
target mRNA inhibition (HepG2, 5 µM): 22%

CTACATCCAAGGGAATG (sugars e3 k2 d7 k2 e3, PS)
target mRNA inhibition (HepG2, 3 µM): 40%

ACTGGTCCATTACTTTC (sugars e3 k2 d7 k2 e3, PS)
target mRNA inhibition (HepG2, 3 µM): 14%

CATTGCCCAAGTCTCCAACA (sugars e5 d10 e5, PS)
target mRNA inhibition (HepG2, 5 µM): 39% and 25%

GTTTAATACCCATCTGT (sugars e3 k2 d7 k2 e3, PS)
target mRNA inhibition (HepG2, 3 µM): 17%

ACTCATGAACATGGAATCCA (sugars e5 d10 e5, PS)
target mRNA inhibition (HepG2, 5 µM): 27% and 20%

CCGCGCCTCGCCCACTCTGG (sugars e5 d10 e5, PS)
target mRNA inhibition (HepG2, 4 µM): 27%

GCCATACAGGGTTTTTA (sugars e2 k2 d8 k2 e3, PS)
target mRNA inhibition (HepG2, 5 µM): 13%

AAGAAATTCTGACAAGT (sugars e3 k2 d7 k2 e3, PS)
target mRNA inhibition (HepG2, 3 µM): 18%

GAATCCATGCAGGCCTT (sugars e3 k2 d7 k2 e3, PS)
target mRNA inhibition (HepG2, 3 µM): 9%

CAATTACACCACAAGCC (sugars e2 k2 d9 k2 e2, PS)
target mRNA inhibition (HepG2, 4 µM): 61%
